Test results: US20080085855A1, “Perivascular wraps” (Angiotech International AG, priority 2002, published 2008)

Experiments:
[1] = system: intimal hyperplasia; assay: Rat balloon injury carotid artery model, paclitaxel containing mesh; format: in vivo; conditions: 1×1 cm paclitaxel-containing mesh (345 μg paclitaxel in 50:50 PLG coating on 10:90 PLG mesh), perivascular, 14 days after balloon injury
Method: Wistar rats weighing 400-500 g were anesthetized with 1.5% halothane in oxygen and the left external carotid artery was exposed. An A 2 French Fogarty balloon embolectomy catheter (Baxter, Irvine, Calif.) was advanced through an arteriotomy in the external carotid artery down the left common carotid artery to the aorta. The balloon was inflated with enough saline to generate slight resistance (approximately 0.02 ml) and it was withdrawn with a twisting motion to the carotid bifurcation. The balloon was then deflated and the procedure repeated twice more. This technique produced distension of the arterial wall and denudation of the endothelium. The external carotid artery was ligated after removal of the catheter. The right common carotid artery was not injured and was used as a control.
Immediately after injury of the left common carotid artery, a 1 cm long distal segment of the artery was exposed and treated with a 1×1 cm paclitaxel-containing mesh. The wound was then closed the animals were kept for 14 days.
At the time of sacrifice, the animals were euthanized with carbon dioxide and pressure perfused at 100 mmHg with 10% phosphate buffered formaldehyde for 15 minutes. Both carotid arteries were harvested and left overnight in fixative. The fixed arteries were processed and embedded in paraffin wax. […]

[2] = system: intimal hyperplasia; assay: Sheep carotid artery bypass graft (ePTFE) model, paclitaxel containing mesh; conditions: for Percent Change in Maximal Intimal Thickness / Percent Change in % Stenosis / Percent Change in Intimal Area: vs zero-dose mesh;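 as to all read-outs here: sheep with ePTFE carotid bypass grafts, PLG mesh wrapped at the distal anastomosis, histology of fixed graft and artery sections about 56 days after implantation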
Method: The left and right carotid arteries of anesthetized sheep were exposed by sharp dissection. A tunnel was formed from one carotid artery to the other to accommodate the ePTFE graft. The ePTFE graft was tunneled and trimmed for appropriate length and configuration. Using standard vascular technique, the ePTFE graft was anastomosed end-to-side with running 6-0 polypropylene suture. The angle of the junction between graft and native vessel was approximately 45°. The length of the implanted graft ranged from 9.5-15 cm (average 11 cm).
Paclitaxel was incorporated into the 2 cm×5 cm PLG mesh in the following doses and animal test groups: Group 1, 0 mg; Group 2, 0.6 mg; Group 3, 1.8 mg; and Group 4, 3.0 mg. The mesh was placed at the distal end of the graft at the anastomosis site. To place the mesh, the long side was pulled under the artery and up around either side of the distal end of the graft. One edge was positioned as close to the heel of the anastomosis as possible. The top edges of the mesh were sewn together with one suture on either side of the graft so that no gaps were left in the circumferential direction. One suture was placed at the proximal end and the other at the distal end of the mesh, and sewn to nearby connective tissue to prevent slippage of the mesh away from the anastomosis (see FIG. 6). The surgical sites were closed in layers with running absorbable sutures. Standard antibiotics and analgesics were administered after surgery for several days as required.
At approximately 56 days post-graft implant, animals were anesthetized. Contrast media was injected and angiograms performed of the distal graft and artery at the distal anastomosis. Immediately prior to euthanasia, the animals received heparin (150 U/kg, IV) and immediately after euthanasia, the ePTFE graft was rinsed in situ with lactated Ringers solution and perfusion-fixed in situ with 10% neutral buffered formalin (NBF). The specimens were excised en bloc and allowed to immersion fix in 10% NBF at least 24 hours prior to histological processing.
The fixed specimens were trimmed and mapped accurately for corresponding cross sectional location in reference to the ePTFE graft configuration. […] A total of nine sections were cut at the distal end of the graft: two cut perpendicular to the artery on either side of the anastomosis (A1 and A5), one perpendicular to the artery through the “toe” of the anastomosis (A2), one or two cut through the floor of the anastomosis adjacent to the “toe” (A3 and A4), three cut perpendicular to the graft at its distal end, and one through the center of the graft. Adjacent sections were cut at approximately 3 mm intervals. The specimens were paraffin-embedded, cross-sectioned, and four sets of slides made, two stained with hematoxylin and eosin (H&E), and one each stained with Masson's trichrome and Verhoeff Van Gieson (VVG). These stains were selected for their ability to show tissue cellularity (H&E), collagen, smooth muscle and fibrin (Masson's Trichrome), and elastin (VVG).
The morphometric analysis system consists of an Olympus BX40 microscope, Optronics Image Sensor DEI-750, Sony HR Trinitron monitor, and PC computer equipped with Media Cybernetics Image-Pro Plus software v.

[3] = Dose 0.6 (mg in PLG mesh, Group 2), Graft Section 6, approx. 56 days
[4] = Dose 0.6 (mg in PLG mesh, Group 2), Graft Section 7, approx. 56 days
[5] = Dose 0.6 (mg in PLG mesh, Group 2), Graft Section 8, approx. 56 days
[6] = Dose 1.8 (mg in PLG mesh, Group 3), Graft Section 6, approx. 56 days
[7] = Dose 1.8 (mg in PLG mesh, Group 3), Graft Section 7, approx. 56 days
[8] = Dose 1.8 (mg in PLG mesh, Group 3), Graft Section 8, approx. 56 days
[9] = Dose 3.0 (mg in PLG mesh, Group 4), Graft Section 6, approx. 56 days
[10] = Dose 3.0 (mg in PLG mesh, Group 4), Graft Section 7, approx. 56 days
[11] = Dose 3.0 (mg in PLG mesh, Group 4), Graft Section 8, approx. 56 days

CC(=O)O[C@H]1C(=O)[C@@]2(C)[C@H]([C@H](OC(=O)c3ccccc3)[C@]3(O)C[C@H](OC(=O)[C@H](O)[C@@H](NC(=O)c4ccccc4)c4ccccc4)C(C)=C1C3(C)C)[C@]1(OC(C)=O)CO[C@@H]1C[C@@H]2O [Paclitaxel, paclitaxel]
intimal hyperplasia (histology, FIGS. 3-5) [1]: dramatic reduction in intimal hyperplasia
Percent Change in Maximal Intimal Thickness ([2]; Dose 0.6 (mg in 2 cm×5 cm PLG mesh, Group 2), Graft "Toe" Section 2, approx. 56 days): −5%
Percent Change in % Stenosis [2, 3]: −59%^
Percent Change in Intimal Area [2, 3]: −62%^
Percent Change in Maximal Intimal Thickness [2, 3]: −71%^2
Percent Change in % Stenosis [2, 4]: −66%^2
Percent Change in Intimal Area [2, 4]: −67%^2
Percent Change in Maximal Intimal Thickness [2, 4]: −65%
Percent Change in % Stenosis [2, 5]: −75%^2
Percent Change in Intimal Area [2, 5]: −77%
Percent Change in Maximal Intimal Thickness [2, 5]: −59%
Percent Change in Maximal Intimal Thickness ([2]; Dose 1.8 (mg in PLG mesh, Group 3), Graft "Toe" Section 2, approx. 56 days): −28%
Percent Change in % Stenosis [2, 6]: −84%^2
Percent Change in Intimal Area [2, 6]: −85%^2
Percent Change in Maximal Intimal Thickness [2, 6]: −77%^2
Percent Change in % Stenosis [2, 7]: −85%^2
Percent Change in Intimal Area [2, 7]: −85%^2
Percent Change in Maximal Intimal Thickness [2, 7]: −71%^2
Percent Change in % Stenosis [2, 8]: −75%^2
Percent Change in Intimal Area [2, 8]: −76%
Percent Change in Maximal Intimal Thickness [2, 8]: −63%
Percent Change in Maximal Intimal Thickness ([2]; Dose 3.0 (mg in PLG mesh, Group 4), Graft "Toe" Section 2, approx. 56 days): −34%
Percent Change in % Stenosis [2, 9]: −81%^2
Percent Change in Intimal Area [2, 9]: −82%^2
Percent Change in Maximal Intimal Thickness [2, 9]: −74%^2
Percent Change in % Stenosis [2, 10]: −79%^2
Percent Change in Intimal Area [2, 10]: −80%^2
Percent Change in Maximal Intimal Thickness [2, 10]: −69%
Percent Change in % Stenosis [2, 11]: −86%^
Percent Change in Intimal Area [2, 11]: −86%
Percent Change in Maximal Intimal Thickness [2, 11]: −83%^2
MIT (maximal neointimal thickness), group average ±SD ([2]; Section 2 ("toe" section), high dose (3.0 mg), approx. 56 days): 0.54±0.23 mm
MIT less than controls ([2]; Section 2 ("toe" section), high dose (3.0 mg), not statistically significant (p>0.05)): 34%
MIT (maximal neointimal thickness), group average ±SD ([2]; Section 2 ("toe" section), low dose (0.6 mg), approx. 56 days): 0.78±0.30 mm
MIT less than controls ([2]; Section 2 ("toe" section), low dose (0.6 mg), not statistically significant (p>0.05)): 5%
MIT (maximal neointimal thickness), group average ±SD ([2]; Section 2 ("toe" section), mid dose (1.8 mg), approx. 56 days): 0.59±0.14 mm
MIT less than controls ([2]; Section 2 ("toe" section), mid dose (1.8 mg), not statistically significant (p>0.05)): 28%
mechanical integrity of the anastomosis (leakage) ([2]; dose range tested (0.6-3.0 mg in mesh)): does not affect the mechanical integrity of the anastomosis
Intraluminal endothelialization ([2]; doses tested (0.6-3.0 mg in mesh)): not affected
lesions causing luminal narrowing at the distal end of the graft ([2]; lowest paclitaxel dose, 0.6 mg): marked and signifimayt reduction
reduction in stenosis ([2]; paclitaxel groups (0.6, 1.8, 3.0 mg), sections 6, 7, 8, 7 of 9 values significantly lower than controls (p≦0.05)): 70-80%
IA (neointimal area) reduced ([2]; paclitaxel groups (0.6, 1.8, 3.0 mg), sections 6, 7, 8, vs control group): 70-80%
MIT (maximal neointimal thickness), group average ±SD ([2]; section 6 (first full cross section of graft adjacent to the distal anastomosis), low dose (0.6 mg), p<0.05): 0.38±0.12 mm
MIT (maximal neointimal thickness), group average ±SD ([2]; section 6, high dose (3.0 mg), p<0.05): 0.34±0.20 mm
MIT (maximal neointimal thickness), group average ±SD ([2]; section 6, medium dose (1.8 mg), p<0.05): 0.31±0.29 mm
MIT less than controls ([2]; sections 7 and 8, all the paclitaxel groups (0.6, 1.8, 3.0 mg)): approximately 70%
